Measured values taken from US20100120703A1, “COMPOSITIONS AND METHODS FOR TREATING CANCER” (priority 2007, published 2010).

Legend:
HepG2 cells = assay: Cell cycle analysis by flow cytometry (PI); type: cell-based, human
Method: Flow Cytometery is a rapid and quantitative method for measuring certain physical and chemical characteristics of cells or particles as they travel in suspension through a sensor. When the cell is labeled with propidium iodide (PI), the DNA content can be measured which is used to determine the stage of the cell cycle. When cell cycles are obtained, a cell cycle map can be recorded.
HepG2 cells were trypsinized, washed and seeded into […] culture plates in complete RPMI medium. After 24 hours of pre-incubation, different concentrations (250 μM and 500 μM) of SIN were added to the culture plates. The complete RPMI medium was added to one plate containing control cells. After different periods of incubation with SIN, cells were harvested, the medium was removed from the culture plate and the plate was washed twice with 2 ml of 1×PBS buffer. All of the solutions were collected, and the cells were trypsinized and collected. The whole solution was centrifuged at 1,000 rpm for 3 minutes. The supernatant was removed and the cell pellet was resuspended in 1 ml 1×PBS buffer for washing. […]
The cell pellet was resuspended in 1 ml of 70% ethanol and 0.1 ml of 1×PBS buffer. […] DNA content was analyzed using an FACScan Flow cytometry with sufficient Sheath Fluid. The results were analyzed by the FCS express software produced by the De Novo Software Company.

Sprague Dawley (SD) rats [1] = assay: DEN/CCl4-induced hepatoma in rats, promotion stage: liver observation and weight; type: in vivo, rat; conditions: 15 mg/kg oral daily for 28 weeks
Method: Sprague Dawley (SD) rats were used as the animal model in the in vivo experiments. Male SD rats (80-90 g body weight) were obtained from Laboratory Animal Services Center of The Chinese University of Hong Kong. The rats were housed in the rodent animal room with a 12 hour light-dark cycle and constant temperature of 25° C. Four rats were housed in each case. Food and water were given ad libitum. All the animals were observed and weighed daily.
The experiments were to induce hepatomas in rats. SIN was administered to the rats of treatment group at different stages. Chemical carcinogens were employed in the design of experiment to be able to induce hepatoma within a short time (Ha W. S. et al., 2001). Diethylnitrosamine (DEN) has been frequently used by other scientists to induce hepatoma. DEN administration in combined with CCl4 method was employed in the experiment to induce hepatoma in rats according to the established protocol (Kovalszky, I. et al., 1992).
Experiments of the promotion stage were to study the effect of SIN at the promotion stage of cancer development. Fifteen rats were randomly divided into 3 groups, a negative control group (5 rats), a positive control group (5 rats) and an SIN-treatment group (5 rats). […]
During the experiment, the body weight of the rat was monitored daily. […]

Sprague Dawley (SD) rats [2] = assay: Histological analysis and GST-p immunostaining of liver, promotion stage; type: in vivo, rat
Text: In the promotion stage experiment, rats in the negative control group received weekly intraperitoneal (i.p.) injection of DMSO for the first 2 weeks and then Corn Oil for the rest of the schedule. Rats in the positive control and SIN-treatment groups both received weekly intraperitoneal (i.p.) injection of the carcinogen DEN for the first 2 weeks and then promoter, Carbon Tetrachloride (CCl4) for the rest of the schedule. Two weeks of fasting were inserted between the initiator carcinogen treatment and the promoter CCl4 treatment. During the fasting period of 2 weeks, rats were fasted for 5 days, followed by a 2 day feeding, and another 5 days of fasting. Water was given ad libitum. Negative and positive control groups received oral treatment of water once a day after fasting. Sinigrin with dosage 15 mg/kg was administered orally to the treatment group daily for 28 weeks after fasting.
Histological analysis was performed to observe the basic structure of the hepatocytes. Xylene was purchased from Mallinckrodt. Ethanol was purchased from BDH. ABC staining (Anti-rabbit) kit (sc-2018) was purchased from Santa Cruz. Superfrost Microscope slide was purchased from Fisher. 30% H2O2, DAB and Formaldehyde were purchased from Sigma. Anti-GST-pi rabbit polyclonal antibody was purchased from MBL.
The liver samples were fixed with 10% formaldehyde and put in cassettes for dehydration and fixed with wax. […]

human colon cancer cells = conditions: cited from earlier work

C=CC/C(=N/OS(=O)(=O)[O-])S[C@@H]1OC(CO)[C@@H](O)C(O)C1O.[K+] (stereo partly shown) [SIN, sinigrin]
cells arrested in sub G1 phase vs untreated cells (HepG2 cells; 0.5 mM SIN, 96 hours): the increase of the cells arrested in sub G1 phase becomes very obvious
cell cycle effect in HepG2 cells (HepG2 cells; SIN treatment, 24-96 hours): G0/G1 phase arrest
percentage of liver weight and liver weight index vs negative group (Sprague Dawley (SD) rats [1]): only slightly higher
visible tumors on liver (direct observation) (Sprague Dawley (SD) rats [1]): no visible tumor
hepatocyte structure in liver sections (H&E) (Sprague Dawley (SD) rats [2]; 15 mg/kg oral daily): the basic structure of hepatocytes and the central vein were restored
GST-p positive area / whole section area (Sprague Dawley (SD) rats [2]; positive control 35%): 5%
action on apoptosis and cell proliferation (human colon cancer cells): might be apoptosis- and cell proliferation-independent
